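Following 48 hours of exposure in 96-well plates, responses at five concentrations were used to interpolate endpoints linearly. Here, GI50 denotes the concentration required for 50% inhibition of growth. TGI denotes the concentration required for complete inhibition of growth.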
How the values were obtained:
Experiment in all cases: NCI anticancer screen, dose series, 48 h
[1] = test system: IGROV1 ovarian
[2] = test system: COLO 205 colon
[3] = test system: HL-60(TB) leukemia
[4] = test system: NCI/ADR-RES ovarian
[5] = test system: HCT-15 colon
[6] = test system: UO-31 renal
[7] = test system: SN12C renal
[8] = test system: HOP-62 NSCLC
[9] = test system: CAKI-1 renal
[10] = test system: OVCAR-8 ovarian
[11] = test system: SK-MEL-2 melanoma
[12] = test system: HOP-92 NSCLC
[13] = test system: CCRF-CEM leukemia
[14] = test system: M14 melanoma
[15] = test system: SF-295 CNS
[16] = test system: SK-MEL-5 melanoma
[17] = test system: T-47D breast
[18] = test system: ACHN renal
[19] = test system: EKVX NSCLC
[20] = test system: RXF 393 renal
[21] = test system: MALME-3M melanoma
[22] = test system: UACC-257 melanoma
[23] = test system: 786-0 renal
[24] = test system: MCF7 breast
[25] = test system: SF-539 CNS
[26] = test system: MOLT-4 leukemia
[27] = test system: OVCAR-4 ovarian
[28] = test system: UACC-62 melanoma
[29] = test system: SNB-19 CNS
[30] = test system: RPMI-8226 leukemia
[31] = test system: DU-145 prostate
[32] = test system: LOX IMVI melanoma
[33] = test system: NCI-H23 lung
[34] = test system: HS 578T breast
[35] = test system: BT-549 breast
[36] = test system: OVCAR-5 ovarian
[37] = test system: SK-OV-3 ovarian
[38] = test system: PC-3 prostate
[39] = test system: SK-MEL-28 melanoma
[40] = test system: NCI-H460 lung
[41] = test system: HCT-116 colon
[42] = test system: K-562 leukemia
[43] = test system: SW-620 colon
[44] = test system: MDA-MB-435
[45] = test system: A549 NSCLC
[46] = test system: U251 CNS
[47] = test system: NCI-H522 lung
[48] = test system: A498 renal
[49] = test system: MDA-MB-231 breast
[50] = test system: HCC-2998 colon
[51] = test system: SNB-75 CNS
[52] = test system: HT29 colon
[53] = test system: OVCAR-3 ovarian
[54] = test system: KM12 colon
[55] = test system: SF-268 CNS
[56] = test system: TK-10 renal
[57] = test system: NCI-H226 lung

## N#Cc1cc(-c2nc3cc(F)ccc3s2)ccc1N
[1]
  TGI: 13900 nM
[2]
  TGI: > 100000 nM
[3]
  TGI: > 100000 nM
[4]
  TGI: > 100000 nM
[5]
  TGI: > 100000 nM
[6]
  TGI: > 100000 nM
[7]
  TGI: > 100000 nM
[8]
  TGI: > 100000 nM
[9]
  TGI: > 100000 nM
[10]
  TGI: > 100000 nM
[11]
  TGI: > 66800 nM
[12]
  TGI: 29600 nM
[13]
  TGI: > 100000 nM
[14]
  TGI: 99700 nM
[15]
  TGI: > 100000 nM
[16]
  TGI: > 100000 nM
[17]
  TGI: 220 nM
[18]
  TGI: 62500 nM
[19]
  TGI: 98800 nM
[20]
  TGI: 14100 nM
[21]
  TGI: > 100000 nM
[22]
  TGI: > 100000 nM
[23]
  TGI: > 100000 nM
[24]
  TGI: 583 nM
[25]
  TGI: 56700 nM
[26]
  TGI: > 100000 nM
[27]
  TGI: > 93500 nM
[28]
  TGI: > 87700 nM
[29]
  TGI: > 66600 nM
[30]
  TGI: > 100000 nM
[31]
  TGI: > 100000 nM
[32]
  TGI: > 100000 nM
[33]
  TGI: 848 nM
[34]
  TGI: > 100000 nM
[35]
  TGI: 29100 nM
[36]
  TGI: 2900 nM
[37]
  TGI: > 92300 nM
[38]
  TGI: > 100000 nM
[39]
  TGI: > 100000 nM
[40]
  TGI: 17800 nM
[41]
  TGI: > 100000 nM
[42]
  TGI: > 100000 nM
[43]
  TGI: > 100000 nM
[44]
  TGI: > 100000 nM
[45]
  TGI: > 68400 nM
[46]
  TGI: > 82100 nM
[47]
  TGI: > 100000 nM
[48]
  TGI: > 56400 nM
[49]
  TGI: > 85100 nM
[50]
  TGI: 60.4 nM
[51]
  TGI: 6680 nM
[52]
  TGI: > 100000 nM
[53]
  TGI: > 100000 nM
[54]
  TGI: > 32800 nM
[55]
  TGI: > 78300 nM
[56]
  TGI: 1690 nM
[57]
  TGI: 79300 nM

## COC(=O)c1ccc([C@H]2c3[nH]c4ccccc4c3C[C@H](C(=O)OC)N2C(=O)CCl)cc1
[1]
  GI50: 85.8 nM
  TGI: 277 nM
[2]
  GI50: 2330 nM
  TGI: 6140 nM
[3]
  GI50: 113 nM
  TGI: 301 nM
[4]
  GI50: 74.4 nM
  TGI: 333 nM
[5]
  GI50: 1040 nM
  TGI: 2650 nM
[6]
  GI50: 28.3 nM
  TGI: 108 nM
[7]
  GI50: 1260 nM
  TGI: 2890 nM
[8]
  GI50: 997 nM
  TGI: 4440 nM
[9]
  GI50: 262 nM
  TGI: 2510 nM
[10]
  GI50: 1360 nM
  TGI: 7930 nM
[11]
  GI50: 2030 nM
  TGI: 4890 nM
[12]
  GI50: 23 nM
  TGI: 63 nM
[13]
  GI50: 22.3 nM
  TGI: 83.9 nM
[14]
  GI50: 1940 nM
  TGI: 5110 nM
[15]
  GI50: 80.4 nM
  TGI: 216 nM
[16]
  GI50: 2300 nM
  TGI: 5930 nM
[17]
  GI50: 2230 nM
  TGI: 13300 nM
[18]
  GI50: 234 nM
  TGI: 2170 nM
[19]
  GI50: 820 nM
  TGI: 3400 nM
[20]
  GI50: 74 nM
  TGI: 723 nM
[21]
  GI50: 157 nM
  TGI: 438 nM
[22]
  GI50: 3870 nM
  TGI: 14500 nM
[23]
  GI50: < 10 nM
  TGI: < 16.9 nM
[24]
  GI50: 1750 nM
  TGI: 4950 nM
[25]
  GI50: 89.9 nM
  TGI: 226 nM
[26]
  GI50: 268 nM
  TGI: 857 nM
[27]
  GI50: 2500 nM
  TGI: 9870 nM
[28]
  GI50: 752 nM
  TGI: 2210 nM
[29]
  GI50: 4390 nM
  TGI: 16000 nM
[30]
  GI50: 40.5 nM
  TGI: 386 nM
[31]
  GI50: 2230 nM
  TGI: 12300 nM
[32]
  GI50: < 10 nM
  TGI: < 10 nM
[33]
  GI50: 54.9 nM
  TGI: 375 nM
[34]
  GI50: 1480 nM
  TGI: 5980 nM
[35]
  GI50: 1230 nM
  TGI: 2570 nM
[36]
  GI50: 1440 nM
  TGI: 3650 nM
[37]
  GI50: 1720 nM
  TGI: 3590 nM
[38]
  GI50: 845 nM
  TGI: 4300 nM
[39]
  GI50: 2350 nM
  TGI: 6920 nM
[40]
  GI50: 1630 nM
  TGI: 3590 nM
[41]
  GI50: 1470 nM
  TGI: 2980 nM
[42]
  GI50: 1970 nM
  TGI: > 28000 nM
[43]
  GI50: 1490 nM
  TGI: 3340 nM
[44]
  GI50: 2740 nM
  TGI: 11100 nM
[45]
  GI50: 1630 nM
  TGI: 10500 nM
[46]
  GI50: 641 nM
  TGI: 1990 nM
[47]
  GI50: 19.7 nM
  TGI: 43.5 nM
[48]
  GI50: 447 nM
  TGI: 888 nM
[49]
  GI50: 109 nM
  TGI: 551 nM
[50]
  GI50: 1750 nM
  TGI: 3380 nM
[51]
  GI50: 334 nM
  TGI: 843 nM
[52]
  GI50: 298 nM
  TGI: 1110 nM
[53]
  GI50: 672 nM
  TGI: 2120 nM
[54]
  GI50: 1030 nM
  TGI: 4390 nM
[55]
  GI50: 1900 nM
  TGI: 4610 nM
[56]
  GI50: 2320 nM
  TGI: 7660 nM
[57]
  GI50: 2210 nM
  TGI: 5940 nM

Reference: PubChem BioAssay (NCI)
